The values below come from ChEMBL document CHEMBL1201862, “PubChem BioAssay data set” (2004).

Some test systems named below: HT-29; OVCAR-4; HL-60; SNB-75; EKVX; Malme-3M; HOP-92; LOX IMVI; NCI-H460; OVCAR-3; CAKI-1; SF-295; SF-539; M14; SK-MEL-2; NCI-H23; RXF 393; CCRF-CEM.
Assay in all cases: NCI-60 cell line screen, 48 h

SMILES strings stand for the structures.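 Five concentrations, 48 hours, 96-well plates. GI50 marks 50% less growth.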 Calls of active or inactive are those of the source. Cut-off read from the data, not from the text of the source: active = GI50 up to about 1.1 µM and inactive = higher.

Turning to `CC(C)(C)OC(=O)Cc1ccc2c(ccn2Cc2ccccc2)c1`, the GI50 in the assay with HT-29 is 17.2 µM (inactive); with OVCAR-4, 83.6 µM (inactive); with HL-60, 28.2 µM (inactive); in the assay on SNB-75, > 100 µM (inactive); in the assay with EKVX it was 81.8 µM (inactive); in the assay with Malme-3M, > 100 µM (inactive). For the same compound, the GI50 in the assay on HOP-92 is 79.3 µM (inactive); with LOX IMVI it was 47.4 µM (inactive); in the assay on NCI-H460 it was 68.2 µM (inactive); in the assay with OVCAR-3 it was 56.2 µM (inactive); in the assay with CAKI-1, > 100 µM (inactive); in the assay on SF-295, 75.2 µM (inactive). Moreover, the GI50 in the assay with SF-539 is 93.5 µM (inactive); with M14, > 100 µM (inactive); in the assay on SK-MEL-2 it was > 100 µM (inactive); in the assay with NCI-H23 it was 44.8 µM (inactive); in the assay on RXF 393, 37.1 µM (inactive); in the assay on CCRF-CEM, > 100 µM (inactive).
As for `CN(C(=O)C1CC1)C1C2CN3CCC(O2)C13` (stereo unspecified), the GI50 in the assay on HT-29, in the assay on OVCAR-4, in the assay on HL-60, with SNB-75, in the assay on EKVX and in the assay with Malme-3M was > 100 µM (inactive) in each case. Also, the GI50 with HOP-92, in the assay with LOX IMVI, with NCI-H460, in the assay with OVCAR-3, with CAKI-1 and in the assay with SF-295 was > 100 µM (inactive) in each case. In addition, the GI50 in the assay with SF-539, with M14, with SK-MEL-2, with NCI-H23, in the assay with RXF 393 and in the assay on CCRF-CEM was > 100 µM (inactive) in each case.
Turning to `Cc1cc(NS(=O)(=O)c2ccc(NC(=O)c3ccc(Cl)c4c(Nc5ccc(S(=O)(=O)Nc6cc(C)on6)cc5)c5ccccc5nc34)cc2)no1`, the GI50 is 19.8 µM (inactive) in the assay on HT-29; 34.6 µM (inactive) with OVCAR-4; 21.3 µM (inactive) in the assay on HL-60; 6.46 µM (inactive) in the assay on SNB-75; 39 µM (inactive) in the assay with EKVX; 16.2 µM (inactive) in the assay on Malme-3M. Moreover, the GI50 was 19.8 µM (inactive) with HOP-92; 18.5 µM (inactive) in the assay with LOX IMVI; 21 µM (inactive) in the assay with NCI-H460; 16.6 µM (inactive) in the assay on OVCAR-3; 15.9 µM (inactive) in the assay with CAKI-1; 23.8 µM (inactive) with SF-295. Further, the GI50 with SF-539 is 14.9 µM (inactive); with M14 it was 22.2 µM (inactive); in the assay with SK-MEL-2, 20.9 µM (inactive); with NCI-H23 it was > 10 µM (inactive); in the assay with RXF 393, > 10 µM (inactive); in the assay with CCRF-CEM it was 18.8 µM (inactive).
Regarding `CC(C)=CCCc1c(C)ccc2c1C(=O)C(=O)C(C(C)C)=C2`, the GI50 with HT-29 is 7.11 µM (inactive); with OVCAR-4, 3.84 µM (inactive); in the assay on HL-60 it was 1.03 µM (active); in the assay on SNB-75, 9.62 µM (inactive); in the assay with EKVX, > 22 µM (inactive); with Malme-3M, 3.73 µM (inactive). For the same compound, the GI50 was 3.26 µM (inactive) with HOP-92; 10.7 µM (inactive) with NCI-H460; 3.76 µM (inactive) in the assay on OVCAR-3; 4.16 µM (inactive) in the assay with CAKI-1; > 22 µM (inactive) in the assay with SF-295; 4.27 µM (inactive) in the assay on SF-539. Further, the GI50 with M14 was 4.24 µM (inactive); with SK-MEL-2, 4.1 µM (inactive); in the assay with NCI-H23 it was 3.94 µM (inactive); with RXF 393 it was 3.68 µM (inactive); with CCRF-CEM, 0.661 µM (active).
As to `COC(=O)/C(C#N)=C1\NN=NN1CCCN1CCOCC1`, the GI50 in the assay on HT-29, in the assay on SNB-75, in the assay on EKVX, in the assay on Malme-3M, with HOP-92 and with LOX IMVI was > 100 µM (inactive) in each case. Besides, the GI50 in the assay on NCI-H460, with OVCAR-3, in the assay on CAKI-1, in the assay with SF-295, with SF-539 and in the assay with M14 was > 100 µM (inactive) in each case. Besides, the GI50 with NCI-H23, with RXF 393 and with CCRF-CEM was > 100 µM (inactive) each time.
In the case of `C/C(=N/O)c1sc(-c2nc(C)c(/C(C)=N\O)s2)nc1C`, the GI50 was > 100 µM (inactive) with HT-29; > 100 µM (inactive) in the assay with OVCAR-4; > 100 µM (inactive) in the assay with HL-60; 31.3 µM (inactive) in the assay with SNB-75; > 100 µM (inactive) in the assay with EKVX; > 100 µM (inactive) with Malme-3M. The GI50 with HOP-92, in the assay on LOX IMVI, with OVCAR-3, in the assay with CAKI-1, in the assay with SF-295 and in the assay on SF-539 was > 100 µM (inactive) throughout. The GI50 in the assay with M14, in the assay on NCI-H23, in the assay with RXF 393 and with CCRF-CEM was > 100 µM (inactive) in each case.
For the compound `COc1ccc(C=O)cc1O[Si](C)(C)C(C)(C)C`, the GI50 is > 100 µM (inactive) with HT-29; > 100 µM (inactive) with OVCAR-4; > 100 µM (inactive) in the assay with HL-60; 61.5 µM (inactive) in the assay on SNB-75; > 100 µM (inactive) with EKVX; > 100 µM (inactive) with Malme-3M. Moreover, the GI50 in the assay with HOP-92 is 25.7 µM (inactive); in the assay with LOX IMVI, > 100 µM (inactive); in the assay with NCI-H460, > 100 µM (inactive); with OVCAR-3 it was > 100 µM (inactive); in the assay with CAKI-1, > 100 µM (inactive); in the assay on SF-295, > 100 µM (inactive). Also, the GI50 in the assay on SF-539, in the assay with M14, in the assay with SK-MEL-2, with NCI-H23, in the assay with RXF 393 and with CCRF-CEM was > 100 µM (inactive) throughout.
For the compound `C1CC2=C(C1)C1=S(S2)SC2=C1CCC2`, the GI50 in the assay on HT-29, in the assay on OVCAR-4, with HL-60, in the assay with SNB-75, in the assay on EKVX and in the assay with Malme-3M was > 100 µM (inactive) in each case. The GI50 in the assay with HOP-92, in the assay with LOX IMVI, with NCI-H460, in the assay with OVCAR-3, in the assay on CAKI-1 and in the assay with SF-295 was > 100 µM (inactive) each time. Also, the GI50 in the assay with SF-539, with M14, in the assay on SK-MEL-2, in the assay on NCI-H23, with RXF 393 and in the assay with CCRF-CEM was > 100 µM (inactive) each time.
Turning to `Oc1nc(S)nc2c1CCCN2`, the GI50 in the assay with HT-29, in the assay on HL-60, in the assay with SNB-75, in the assay on EKVX, in the assay with Malme-3M and in the assay on HOP-92 was > 100 µM (inactive) each time. Besides, the GI50 in the assay with LOX IMVI, in the assay with OVCAR-3, in the assay with CAKI-1, in the assay with SF-295, with M14 and in the assay with SK-MEL-2 was > 100 µM (inactive) in each case. The GI50 in the assay with NCI-H23, with RXF 393 and with CCRF-CEM was > 100 µM (inactive) in each case.
On to `Cn1c2c(c3ccccc31)CCN(CCCCN1CCN(c3cccc(Cl)c3)CC1)C2=O`, for which the GI50 in the assay on HT-29 was 2.79 µM (inactive); with OVCAR-4 it was 14.9 µM (inactive); in the assay with HL-60, 3.67 µM (inactive); with SNB-75 it was 0.0975 µM (active); in the assay with EKVX, 21.5 µM (inactive); in the assay on Malme-3M, > 10 µM (inactive). The GI50 with HOP-92 is 15.2 µM (inactive); in the assay on NCI-H460 it was 13.4 µM (inactive); with OVCAR-3 it was 15.5 µM (inactive); in the assay with CAKI-1, 27.2 µM (inactive); in the assay with SF-295, 16.1 µM (inactive); in the assay with SF-539, 12.8 µM (inactive). Besides, the GI50 was 3.3 µM (inactive) in the assay with M14; 16.7 µM (inactive) in the assay with SK-MEL-2; 12.6 µM (inactive) in the assay with NCI-H23; 7.94 µM (inactive) in the assay on RXF 393; 9.86 µM (inactive) in the assay with CCRF-CEM.
`CCOC(=O)c1c(C(F)(F)F)oc2c1ccc1nc3nonc3nc12`: the GI50 is 15.5 µM (inactive) with HT-29; 9.82 µM (inactive) with OVCAR-4; 4.46 µM (inactive) in the assay with HL-60; 13.2 µM (inactive) with SNB-75; 17.9 µM (inactive) with EKVX; 17 µM (inactive) in the assay with Malme-3M. The GI50 was 13.2 µM (inactive) in the assay with HOP-92; 16.2 µM (inactive) with LOX IMVI; 23.3 µM (inactive) with NCI-H460; 16.5 µM (inactive) in the assay with OVCAR-3; 14 µM (inactive) in the assay with CAKI-1; 27 µM (inactive) in the assay with SF-295. Moreover, the GI50 with SF-539 was 16.2 µM (inactive); in the assay with M14 it was 9.14 µM (inactive); in the assay on SK-MEL-2 it was 19.3 µM (inactive); in the assay with NCI-H23 it was 13.4 µM (inactive); in the assay on RXF 393 it was 11.9 µM (inactive); with CCRF-CEM, 1.91 µM (inactive).
`O=C1O[C@H](C(Cl)(Cl)Cl)N2CCCC12` (stereo partly specified): the GI50 in the assay with HT-29, with OVCAR-4, in the assay on HL-60, in the assay on SNB-75, in the assay with EKVX and in the assay on Malme-3M was > 100 µM (inactive) in each case. The GI50 in the assay on HOP-92, in the assay with LOX IMVI, with NCI-H460, in the assay on OVCAR-3, with CAKI-1 and in the assay on SF-295 was > 100 µM (inactive) in each case. The GI50 in the assay on SF-539, in the assay on M14, with SK-MEL-2, in the assay on NCI-H23, in the assay with RXF 393 and in the assay on CCRF-CEM was > 100 µM (inactive) in each case.
